# In patent US7276490B1, “Medicinal compositions containing prostacylin synthase gene” (priority 2000, dated 2007):
# Legend:
# HEK-293 cells [1] = test: Double-staining with anti-PGIS antibody and Hoechst 33258 (chromatin condensation); format: cell-based, human; conditions: 100 μM; HEK-293 cells expressing PGIS; data not shown
# Description: Cultured monolayer cells of human fetal kidney-derived HEK-293 cell line (ATCC CRL-1573) were harvested and plated in Dulbecco's modified Eagle's medium containing 10% bovine fetal serum (FBS), 100 U/ml penicillin, and […] streptomycin (3×10^5 cells/60-mm dish). 24 hours after incubation, the cells were transfected with 3 μg of any one of PGISwt (described below), PGISC441A (described below), or control vector pCMV7 (generous gift from Texas University; Andersson, S. et al., J. Biol. Chem., 264, 8222-8229 (1989): this can be replaced with pcDNA3 (Invitrogen; catalogue number: #A-150228)) and […] of pvA (plasmid encoding adenovirus-associated RNA1) using LipofectAMINE (Gibco-BRL). 5 hours after transfection, the cells were rinsed twice with phosphate-buffered physiological saline (PBS), and the fresh medium was added thereto. After gene transfer, the cells were cultured for 48 to 60 hours in total. Then, the cells were rinsed with PBS, and fixed with 3.7% formaldehyde for 10 minutes. The cells fixed were washed three times with PBS, and then incubated with the anti-PGIS antibody P4 for 2 hours. After being washed three times with PBS containing 2% FBS, the cells were incubated with anti-rabbit Ig-Texas Red at 37° C. for 1 hour and stained with […] Hoechst 33258 at room temperature for 15 minutes.
# HEK-293 cells [2] = test: Apoptosis assay: X-Gal staining of β-galactosidase co-transfected cells, apoptotic morphology; format: cell-based, human; conditions: HEK-293, HVJ-liposome method
# HEK-293 cells [3] = test: as above; format: cell-based, human; conditions: for effect of oligonucleotide on prostacyclin-mediated apoptosis: HEK-293, HVJ-liposome method; for induction/enhancement of apoptosis by treatment with the agent: various concentrations (1, 10, 100 μM) in serum-free medium, cells expressing β-galactosidase and PGISwt or PGISC441A
# Description: Cells were transfected with 1.0 μg of β-galactosidase expression vector using LipofectAMINE. After a fixed time, the cells were stained with X-Gal to evaluate the cells for apoptotic morphology. Apoptosis was monitored with ApoAlert caspase assay kit using Ac-DEVD-AFC substrate (Clontech). The activity was determined by using lysate pretreated with. Ac-DEVD-CHO as a control according to the supplier's instructions. The caspase activity is defined as a ratio between the caspase activity of a sample and that of lysate prepared from HEK-293 cells mock-transfected with a control plasmid.
# To strictly ascertain the relationship between the expression of PGIS and apoptosis, HEK-293 cells were co-transfected with two types of expression constructs for human PGISwt and β-galactosidase. Because normal HEK-293 cells have flat morphology, it is easy to assess the cells for apoptotic changes characterized by membrane vesicle formation and cell body shrinkage. After incubation for a predetermined time following transfection, cells were stained with X-gal for β-galactosidase activity to identify cells containing the transgenes and then assessed for the apoptotic morphology. […] In HEK-293 cells, apoptosis was induced only by the expression of PGISwt without the presence of co-expression of COX-2 (FIGS. 4a and 5). The co-expression of COX-2 with PGISwt increased the number of apoptotic cells (16%). […] The level of 6-keto-PGF1α released into culture medium was correlated with the frequency of apoptosis (FIG. 6). […] Neither co-expression of PGISC441A and COX-2 nor further addition of arachidonic acid gave influence on the production 6-keto-PGF1α and morphological changes (FIGS. 5 and 6). These findings clearly indicate that prostacyclin produced by active PGIS participates in the process of apoptosis.
# recombinant PPAR = conditions: added to medium; cited from earlier work
# cAMP = test: Intracellular level of cAMP accumulated in transfected cells; format: cell-based, human; conditions: Iloprost at various concentrations, serum-free medium
# Description: FIG. 8 illustrates a diagram showing the intracellular level of cAMP accumulated in cells in serum-free medium containing Iloprost at the concentrations indicated (0, 1, 10, or 100 μM). The cells were transfected with expression plasmids for PGISwt, PGISC441A, or a mock control expression plasmid and β-galactosidase expression plasmid. After 17 hours, the medium was changed with serum-free medium containing Iloprost at various concentrations (0, 1, 10, or 100 μm). All results were obtained from three sets of experiments (n=3) and are presented as mean±S.D.
# HEK-293 cells [4] = test: Distribution of 3H-Iloprost in membrane, cytosol and nuclear fractions; format: in vitro ADME, human; conditions: 100 μM 3H-Iloprost, 24 hours
# Description: FIG. 14 is a diagram showing the influence of the expression of PGIS on PPAR activation. The permeability of Iloprost was evaluated by using ^3H-Iloprost. HEK-293 cells were cultured in DMEM containing 100 μM ^3H-Iloprost for 24 hours. Cell membrane, cytosol, and nuclear fractions were prepared from the cells, and then the distribution of ^3H-Iloprost was determined using the fractions. The results were obtained from three sets of experiments (n=3) and are presented as mean±S.D.
# PPAR = test: PPREx3-luciferase assay in HEK-293 cells; format: cell-based, human
# Source text: The sense oligonucleotide […] CTC (SEQ ID NO: 7) and antisense oligonucleotide […] A (which contains three copies of PPRE; SEQ ID NO: 8) were synthesized and annealed together; the resulting double-stranded DNA was subcloned into PGL3-promoter vector (Promega) at the MluI-XhoI site. PPREx3-luciferase reporter vector and β-galactosidase expression vector were co-transfected into HEK-293 cells using LipofectAMINE. The activity of β-galactosidase was normalized with absorbance at 405 nm.
# PPAR-δ = test: Immunoblot of PPAR-δ after oligonucleotide transfection (HVJ-liposome method); format: cell-based, human; conditions: after 48 hours
# Source text: A lysate prepared from cells transfected with the PPAR-δ antisense oligonucleotide (AS) was immuno-blotted using an anti-PPAR-δ monoclonal antibody; a sense oligonucleotide (S) was used as a control.
# dS, which corresponds to human PPAR-δ cDNA sense sequence: 5′-CTCGGTGACTTATCCTGTG-3′ (SEQ ID NO: 3); dAS, which corresponds to human PPAR-δ cDNA antisense sequence: 5′-TCCTCTTTCTCCTCCTCTT-3′ (SEQ ID NO: 4); aS, which corresponds to human PPAR-α cDNA sense sequence: 5′-CTCGGTGACTTATCCTGTG-3′ (SEQ ID NO: 5); and aAS, which corresponds to human PPAR-α cDNA antisense sequence: 5′-CACAGGATAAGTCACCGAG-3′ (SEQ ID NO: 6). These oligonucleotides were transfected into cells by HVJ-liposome method. Each oligonucleotide (22 μg) was combined with a nuclear protein and high mobility group (HMG)-1. HVJ-liposome was prepared by combining dry lipid (phosphatidyl serine/phosphatidyl choline/cholesterol (1:4.8:2 w/w/w)) with ultraviolet light-inactivated HVJ virus (viruses). After incubation and centrifugation with a sucrose-density gradient, the top layer was collected for transfection. 48 hours after transfection, cells in which the expression of endogenous PPAR-δ had been suppressed were used in PPREx3-luciferase assay and apoptosis assay.
molecule,measurement,setting,value
CC(=O)Oc1ccccc1C(=O)O [aspirin],Hoechst 33258-positive cells,HEK-293 cells [1],48%
"5′-CACAGGATAAGTCACCGAG-3′ (listed as DNA, chemistry not given here) [antisense oligonucleotide PPAR-α]","changes in the oligonucleotide-treated cells (viability, morphology)",HEK-293 cells [2],cell viability declined
same,effect of oligonucleotide on prostacyclin-mediated apoptosis,HEK-293 cells [3],apoptosis was not inhibited
CC#CCC(C)[C@H](O)/C=C/[C@@H]1[C@H]2C/C(=C/CCCC(=O)O)C[C@H]2C[C@H]1O (some centres unmarked) [Iloprost],activation of recombinant PPAR overexpressed in CV-1 cells,recombinant PPAR,results in activation
same,intracellular cAMP,cAMP,accumulated
same,Iloprost taken up by HEK-293 cells,HEK-293 cells [4],very little
same,share of the Iloprost incorporated that is localized on cell membrane,HEK-293 cells [4],> 99%
same,activity of PPRE-luciferase on treatment,"PPAR; 1 to 100 μM added to medium, endogenous PPAR",could not increase
same,induction/enhancement of apoptosis by treatment with the agent,HEK-293 cells [3],apoptosis was not induced
CC1CNCCN1S(=O)(=O)c1cccc2cnccc12 (centres unmarked) [H-7],effect on prostacyclin-mediated apoptosis,"HEK-293 cells [3]; H-7 1, 10, 100 μM in serum-free medium, FIG. 10",did not block but enhanced
"5′-CTCGGTGACTTATCCTGTG-3′ (listed as DNA, chemistry not given here) [PPAR-α sense oligonucleotide]","changes in the oligonucleotide-treated cells (viability, morphology)",HEK-293 cells [2],no marked changes
"CCCC(=O)Nc1ncnc2c1ncn2[C@@H]1O[C@@H]2COP(=O)(O)O[C@H]2[C@H]1OC(=O)CCC [dbcAMP, dibutyryl-cAMP]",induction/enhancement of apoptosis by treatment with the agent,HEK-293 cells [3],apoptosis was not enhanced
CCCCC[C@H](O)/C=C/[C@@H]1[C@@H](C/C=C\CCCC(=O)O)[C@H]2CO[C@@H]1C2 [U46619],Hoechst 33258-positive cells,HEK-293 cells [1],32%
"5′-TCCTCTTTCTCCTCCTCTT-3′ (listed as DNA, chemistry not given here) [PPAR-δ antisense oligonucleotide]",production of PPAR-δ protein,PPAR-δ,suppressed
same,activity of luciferase co-expressed with PGISwt in oligonucleotide-treated cells,PPAR; HEK-293,significantly decreased
same,"changes in the oligonucleotide-treated cells (viability, morphology)",HEK-293 cells [2],normal morphology
same,number of cells after oligonucleotide treatment,HEK-293 cells [2],increased
same,effect of oligonucleotide on prostacyclin-mediated apoptosis,HEK-293 cells [3],significantly blocked
CCCCC[C@H](O)/C=C/[C@@H]1[C@H]2C/C(=C/CCCC(=O)O)O[C@H]2C[C@H]1O [prostacyclin],activation of recombinant PPAR overexpressed in CV-1 cells,recombinant PPAR,could not activate
CCCCC/C=C\C/C=C\C/C=C\C/C=C\CCCC(=O)O [arachidonic acid],apoptosis on addition to the medium,HEK-293 cells [3]; HEK-293 cells expressing both PGISwt and COX-2,induction of apoptosis in almost all the cells
